From ChEMBL document CHEMBL5441381, “ASAP - In vitro antiviral effect” (2024)
Values joined by “and” are separate entries in the source; they are usually repeats but may differ in a detail not shown here. Equal values may be shown once.

What was measured:
SARS-CoV-2 [1] = experiment: (§1) Functional immunofluorescence assay to measure dose dependent changes in antiviral-drug inhibitory efficacy against hCoV-19/USA-WA1/2020 in iPSC-Pneumocyte cells which are seeded prior to treatment, then infected with hCoV-19/USA-WA1/2020. Cells are fixed with 10 % formaldehyde, washed with PBS, permeabilized with permeabilization buffer, then washed with wash buffer. The cells are incubated with nucleoprotein primary antibody IC7C7. Following primary staining, cells are washed with wash buffer and incubated in a solution of with Alexa fluor 488 and DAPI. Infected and uninfected cells are visualized and analyzed by Gen5 software. The assay has been performed by Icahn School of Medicine at Mount Sinai.; type: organism-based, Homo sapiens
SARS-CoV-2 [2] = experiment: as §1, with “hCoV-19/USA-WA1/2020 in HeLa-ACE2 cells which” for “hCoV-19/USA-WA1/2020 in iPSC-Pneumocyte cells which”, “prior to drug treatment, then” for “prior to treatment, then”; type: organism-based, Homo sapiens
[3] = system: Middle East respiratory syndrome-related coronavirus; experiment: microbe, parasite or virus in culture; type: functional, organism-based, Chlorocebus sabaeus, VeroE6/TMPRSS2
[4] = Severe acute respiratory syndrome coronavirus 2, Pneumocyte
[5] = Severe acute respiratory syndrome coronavirus 2, HeLa-ACE2
[6] = Middle East respiratory syndrome-related coronavirus, VeroE6/TMPRSS2

## CC(C)[C@@H](Nc1ncnc2[nH]ccc12)c1ccc2c(c1)S(=O)(=O)CCC2
SARS-CoV-2 [1]; [4]
  EC50: > 50 µM
SARS-CoV-2 [1]; Severe acute respiratory syndrome coronavirus 2, Pneumocyte, Baseline response 0 %, Hill slope -1.893, Maximum measured 187.741 %, Maximum response 100 %, Minimum measured 35.01 %, R squared 0.158
  EC90: > 50 µM
SARS-CoV-2 [1]; Severe acute respiratory syndrome coronavirus 2, Pneumocyte, Maximum measured 138.005 %, Minimum measured 85.609 %
  EC90: > 50 µM
SARS-CoV-2 [1]; pneumocyte
  EC50: 29.9 µM
SARS-CoV-2 [2]; Severe acute respiratory syndrome coronavirus 2, HeLa-ACE2, Baseline response 0 %, Hill slope -1.838, Maximum measured 112.988 %, Maximum response 100 %, Minimum measured 76.031 %, R squared 0.586
  EC90: > 50 µM
SARS-CoV-2 [2]; Severe acute respiratory syndrome coronavirus 2, HeLa-ACE2, Baseline response 0 %, Hill slope -2.172, Maximum measured 117.108 %, Maximum response 100 %, Minimum measured 66.698 %, R squared 0.616
  EC90: > 20 µM
SARS-CoV-2 [2]; hela-ace2
  EC50: > 50 µM

## CC(C)[C@@H](Nc1ncnc2[nH]c(C(=O)N[C@H]3CCN(C)C3)cc12)c1ccc2c(c1)S(=O)(=O)CCC2
SARS-CoV-2 [1]; [4]
  EC50: > 50 µM
SARS-CoV-2 [1]; Severe acute respiratory syndrome coronavirus 2, Pneumocyte, Baseline response 0 %, Hill slope -0.859, Maximum measured 114.501 %, Maximum response 100 %, Minimum measured 59.767 %, R squared 0.551
  EC90: > 50 µM
SARS-CoV-2 [2]; [5]
  EC50: > 20 µM
SARS-CoV-2 [2]; Severe acute respiratory syndrome coronavirus 2, HeLa-ACE2, Baseline response 0 %, Hill slope -0.107, Maximum measured 102.123 %, Maximum response 100 %, Minimum measured 84.181 %, R squared 0.016
  EC90: > 20 µM

## CNC(=O)c1cc2c(N[C@@H](c3ccc4c(c3)OCCO4)C(C)C)ncnc2[nH]1
SARS-CoV-2 [1]; [4]
  EC50: > 50 µM
SARS-CoV-2 [1]; Severe acute respiratory syndrome coronavirus 2, Pneumocyte, Maximum measured 153.61 %, Minimum measured 91.144 %
  EC90: > 50 µM
SARS-CoV-2 [2]; [5]
  EC50: > 50 µM
SARS-CoV-2 [2]; Severe acute respiratory syndrome coronavirus 2, HeLa-ACE2, Baseline response 0 %, Hill slope -1.825, Maximum measured 114.293 %, Maximum response 100 %, Minimum measured 64.264 %, R squared 0.688
  EC90: > 50 µM

## CC(C)[C@H](Nc1ncnc2[nH]c(-c3cnn(CC(N)=O)c3)cc12)c1ccc2c(c1)S(=O)(=O)CCC2
SARS-CoV-2 [1]; [4]
  EC50: > 50 µM
SARS-CoV-2 [1]; Severe acute respiratory syndrome coronavirus 2, Pneumocyte, Baseline response 0 %, Hill slope -0.706, Maximum measured 119.318 %, Maximum response 100 %, Minimum measured 70.174 %, R squared 0.133
  EC90: > 50 µM
SARS-CoV-2 [2]; [5]
  EC50: > 20 µM
SARS-CoV-2 [2]; Severe acute respiratory syndrome coronavirus 2, HeLa-ACE2, Baseline response 0 %, Hill slope 1.066, Maximum measured 108.399 %, Maximum response 100 %, Minimum measured 92.21 %, R squared 0.046
  EC90: > 20 µM

## CCNC(=O)c1cc2c(N[C@@H](c3ccc4c(c3)OCCO4)C(C)C)ncnc2[nH]1
SARS-CoV-2 [1]; [4]
  EC50: 41.1 µM
SARS-CoV-2 [1]; Severe acute respiratory syndrome coronavirus 2, Pneumocyte, Baseline response 0 %, Hill slope -8.576, Maximum measured 136.848 %, Maximum response 100 %, Minimum measured 15.577 %, R squared 0.308
  EC90: > 50 µM
SARS-CoV-2 [2]; [5]
  EC50: > 20 µM
SARS-CoV-2 [2]; Severe acute respiratory syndrome coronavirus 2, HeLa-ACE2, Baseline response 0 %, Hill slope -1.909, Maximum measured 113.12 %, Maximum response 100 %, Minimum measured 80.543 %, R squared 0.285
  EC90: > 20 µM
SARS-CoV-2 [2]; Severe acute respiratory syndrome coronavirus 2, HeLa-ACE2, Maximum measured 94.861 %, Minimum measured 54.623 %
  EC90: > 20 µM
SARS-CoV-2 [2]; Severe acute respiratory syndrome coronavirus 2, HeLa-ACE2, Maximum measured 122.873 %, Minimum measured 70.184 %
  EC90: > 20 µM

## CNCc1cc(-c2cc3c(N[C@@H](c4ccc5c(c4)S(=O)(=O)NCC5)C(C)C)ncnc3[nH]2)co1
SARS-CoV-2 [1]; [4]
  EC50: 30.7 µM
SARS-CoV-2 [1]; Severe acute respiratory syndrome coronavirus 2, Pneumocyte, Baseline response 0 %, Hill slope -1.273, Maximum measured 102.14 %, Maximum response 100 %, Minimum measured 30.967 %, R squared 0.783
  EC90: > 50 µM
SARS-CoV-2 [2]; [5]
  EC50: > 20 µM
SARS-CoV-2 [2]; Severe acute respiratory syndrome coronavirus 2, HeLa-ACE2, Baseline response 0 %, Hill slope -0.236, Maximum measured 99.818 %, Maximum response 100 %, Minimum measured 81.688 %, R squared 0.12
  EC90: > 20 µM

## CC(C)[C@@H](Nc1ncnc2[nH]ccc12)c1ccc2c(c1)NC(=O)CO2
SARS-CoV-2 [1]; [4]
  EC50: > 50 µM
SARS-CoV-2 [1]; Severe acute respiratory syndrome coronavirus 2, Pneumocyte, Maximum measured 145.289 %, Minimum measured 92.172 %
  EC90: > 50 µM
SARS-CoV-2 [2]; [5]
  EC50: > 50 µM
SARS-CoV-2 [2]; Severe acute respiratory syndrome coronavirus 2, HeLa-ACE2, Baseline response 0 %, Hill slope -2.239, Maximum measured 123.573 %, Maximum response 100 %, Minimum measured 69.199 %, R squared 0.469
  EC90: > 50 µM

## CC(C)[C@H](Nc1ncnc2[nH]c(-c3cnn(C)c3C#N)cc12)c1ccc2c(n1)OCCO2
[3]; [6]
  EC50: > 5 µM
  EC90: > 5 µM
SARS-CoV-2 [2]; Baseline response 0 %, EC90 CI (lower) 0.11 uM, EC90 CI (upper) 0.158 uM, Hill slope -1.629, Maximum measured 105.242 %, Maximum response 100 %, Minimum measured 1.508 %, R squared 0.979
  EC90: 1.96 µM
SARS-CoV-2 [2]; [5]
  EC50: 0.819 µM
SARS-CoV-2 [2]; Severe acute respiratory syndrome coronavirus 2, HeLa-ACE2, Baseline response 0 %, EC90 CI (lower) 0.09 uM, EC90 CI (upper) 0.442 uM, Hill slope -1.557, Maximum measured 125.33 %, Maximum response 100 %, Minimum measured 4.425 %, R squared 0.913
  EC90: 3.36 µM
SARS-CoV-2 [2]; hela-ace2
  EC50: 0.508 µM

## CC(C)[C@H](Nc1ncnc2[nH]ccc12)c1ccc2c(c1)S(=O)(=O)CCC2
[3]
  EC90: > 20 µM
[3]; veroe6/tmprss2
  EC50: 2.42 µM and > 20 µM and > 5 µM
SARS-CoV-2 [2]; [5]
  EC50: > 20 µM
SARS-CoV-2 [2]; Severe acute respiratory syndrome coronavirus 2, HeLa-ACE2, Maximum measured 129.029 %, Minimum measured 103.942 %
  EC90: > 20 µM
SARS-CoV-2 [2]; Severe acute respiratory syndrome coronavirus 2, HeLa-ACE2, Maximum measured 158.705 %, Minimum measured 84.767 %
  EC90: > 20 µM
